Measured values published in patent US8927500B2, “Peptidomimetic macrocycles” (Aileron Therapeutics, Inc., priority 2012, dated 2015).
Where a SMILES comes first, the peptide text is derived from it. Bridges are numbered along the chain shown (N, C = ends). [ ]: non-standard residue; d: D form. Trp(6-Cl) = N[C@@H](Cc1c[nH]c2cc(Cl)ccc12)C(=O)O; R8 = C=CCCCCCC[C@@](C)(N)C(=O)O; S5 = C=CCCC[C@](C)(N)C(=O)O

Experiments:
MDM2 = MDM2 (Homo sapiens, UniProt Q00987); experiment: Competitive fluorescence polarization assay for MDM2; format: binding; details: competitive FP assay, MDM2; for IC50: read-out: IC50 (MDM2); for Ki: read-out: Ki (MDM2)
MDM2, sequence (Q00987 1-125): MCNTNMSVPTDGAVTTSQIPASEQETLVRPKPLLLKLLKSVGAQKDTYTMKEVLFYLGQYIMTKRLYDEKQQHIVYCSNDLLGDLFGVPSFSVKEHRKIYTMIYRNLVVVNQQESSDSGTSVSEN
Description: Dilute 1 mM (in 100% DMSO) of FAM labeled linear peptide with DMSO to 100 μM (dilution 1:10). Then, dilute from 100 μM to 10 μM with water (dilution 1:10) and then dilute with FP buffer from 10 μM to 40 nM (dilution 1:250). This is the working solution which will be a 10 nM concentration in well (dilution 1:4). […] Then, dilute from 5 mM to 500 μM with H2O (dilution 1:10) and then dilute with FP buffer from 500 μM to 20 μM (dilution 1:25).
Dilute 1 mM (in 100% DMSO) of FAM labeled linear peptide with DMSO to 100 μM (dilution 1:10). Then, dilute from 100 μM to 10 μM with water (dilution 1:10) and then dilute with FP buffer from 10 μM to 40 nM (dilution 1:250). This is the working solution which will be a 10 nM concentration in well (dilution 1:4). […] Dilute 10 mM (in 100% DMSO) with DMSO to 5 mM (dilution 1:2). Then, dilute from 5 mM to 500 μM with H2O (dilution 1:10) and then dilute with FP buffer from 500 μM to 20 μM (dilution 1:25). […] Transfer 10 μl of serial diluted unlabeled peptides to each well which is filled with 20 μl of 300 nM of protein. • 7. Add 10 μl of 10 nM (4×) of FAM labeled peptide into each well and incubate for 3 hr to read.

MDMX = target: T1, MDMX (Homo sapiens, UniProt O15151); experiment: Competitive fluorescence polarization assay for MDMX; format: binding; details: competitive FP assay; for IC50: read-out: IC50 (MDMX); for Ki: read-out: Ki (MDMX)
T1 sequence (O15151 1-125): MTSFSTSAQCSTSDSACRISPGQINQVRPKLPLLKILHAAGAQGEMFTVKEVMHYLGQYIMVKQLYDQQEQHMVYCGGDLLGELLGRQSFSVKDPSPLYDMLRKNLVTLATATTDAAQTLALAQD

Caspase 3 = Caspase 3 detection assay in SJSA1 cells; format: cell-based; details: 48 h, Caspase 3 activation over DMSO-treated cells; for caspase 0.3 uM: 0.3 uM peptide; for caspase 3 uM: 3 uM peptide; for caspase 10 uM: 10 uM peptide; for caspase 30 uM: 30 uM peptide
SJSA-1 cells = experiment: Cell lysis by peptidomimetic macrocycles (LDH release); format: cell-based; details: 1 h at 37C

CC(=O)N[C@@H](C)C(=O)N[C@@H](C)C(=O)N[C@@H](CC(C)C)C(=O)N[C@H](C(=O)N[C@@H](Cc1ccccc1)C(=O)N[C@]1(C)CCCCCCC=CCCC[C@@](C)(C(=O)N[C@@H](CO)C(=O)N[C@@H](C)C(=O)N[C@@H](C)C(=O)N[C@@H](C)C(=O)N[C@H](C)C(N)=O)NC(=O)[C@H](CC2CCC2)NC(=O)[C@H](CCC(N)=O)NC(=O)[C@H](C)NC(=O)[C@H](Cc2c[nH]c3ccccc23)NC(=O)[C@H](Cc2ccc(O)cc2)NC(=O)[C@H](CCC(=O)O)NC1=O)[C@@H](C)O (single isomer, unassigned) [compound 359]
IC50 (MDM2): < 10 nM
Ki (MDM2): < 10 nM
IC50 (MDMX): 10 to 100 nM
Ki (MDMX): 10 to 100 nM
caspase 0.3 uM (Caspase 3): 3
caspase 1 uM (Caspase 3; 1 uM peptide): 9
caspase 3 uM (Caspase 3): 11
caspase 10 uM (Caspase 3): 13
caspase 30 uM (Caspase 3): 23
6.25 uM % Lysed cells (1 h LDH) (SJSA-1 cells): 0%
25 uM % Lysed cells (1 h LDH) (SJSA-1 cells): 0%
50 uM % Lysed cells (1 h LDH) (SJSA-1 cells): 0%

CC(=O)N[C@@H](CC(C)C)C(=O)N[C@H](C(=O)N[C@@H](Cc1ccccc1)C(=O)N[C@]1(C)CCCCCCC=CCCC[C@@](C)(C(=O)N[C@@H](CO)C(=O)N[C@@H](C)C(=O)N[C@@H](CC(C)C)C(N)=O)NC(=O)[C@H](CC(C)C)NC(=O)[C@H](CCC(N)=O)NC(=O)[C@H](C)NC(=O)[C@H](Cc2c[nH]c3ccccc23)NC(=O)[C@H](Cc2ccc(O)cc2)NC(=O)[C@H](C)NC1=O)[C@@H](C)O [compound 4] (Ac-LTF[R8]AYWAQL[S5]SAL-NH2; staple 4-11)
IC50 (MDM2): 10 to 100 nM
Ki (MDM2): < 10 nM
IC50 (MDMX): 100 to 1000 nM
Ki (MDMX): 10 to 100 nM
caspase 3 uM (Caspase 3): 9
caspase 10 uM (Caspase 3): 37
caspase 30 uM (Caspase 3): 35
6.25 uM % Lysed cells (1 h LDH) (SJSA-1 cells): −2%
25 uM % Lysed cells (1 h LDH) (SJSA-1 cells): 1%
50 uM % Lysed cells (1 h LDH) (SJSA-1 cells): 2%

CC[C@H](C)[C@H](NC(=O)[C@H](C)NC(=O)[C@H](CO)NC(=O)[C@]1(C)CCCC=CCCCCCC[C@@](C)(NC(=O)[C@H](Cc2ccccc2)NC(=O)[C@@H](NC(=O)[C@H](CC(C)C)NC(C)=O)[C@@H](C)O)C(=O)N[C@@H](C)C(=O)N[C@@H](Cc2ccc(O)cc2)C(=O)N[C@@H](Cc2c[nH]c3ccccc23)C(=O)N[C@@H](C)C(=O)N[C@@H](CCC(N)=O)C(=O)N[C@@H](CC(C)C)C(=O)N1)C(N)=O [compound 8] (Ac-LTF[R8]AYWAQL[S5]SAI-NH2; staple 4-11)
IC50 (MDM2): 100 to 1000 nM
Ki (MDM2): 10 to 100 nM
IC50 (MDMX): 100 to 1000 nM
Ki (MDMX): 10 to 100 nM
caspase 3 uM (Caspase 3): 1
caspase 10 uM (Caspase 3): 19
caspase 30 uM (Caspase 3): 25
6.25 uM % Lysed cells (1 h LDH) (SJSA-1 cells): −1%
25 uM % Lysed cells (1 h LDH) (SJSA-1 cells): 1%
50 uM % Lysed cells (1 h LDH) (SJSA-1 cells): 1%

CC(=O)N[C@@H](CC(C)C)C(=O)N[C@H](C(=O)N[C@@H](Cc1ccccc1)C(=O)N[C@]1(C)CCCCCC/C=C/CCC[C@@](C)(C(=O)N[C@@H](CO)C(=O)N[C@@H](C)C(=O)N[C@@H](C)C(N)=O)NC(=O)[C@H](CC(C)C)NC(=O)[C@H](CCC(N)=O)NC(=O)[C@H](C)NC(=O)[C@H](Cc2c[nH]c3cc(Cl)ccc23)NC(=O)[C@H](Cc2ccc(O)cc2)NC(=O)[C@H](C)NC1=O)[C@@H](C)O [compound 99] (Ac-LTF[R8]AY[Trp(6-Cl)]AQL[S5]SAA-NH2; staple (E) 4-11)
IC50 (MDM2): < 10 nM
Ki (MDM2): < 10 nM
IC50 (MDMX): 100 to 1000 nM
Ki (MDMX): 10 to 100 nM
caspase 0.3 uM (Caspase 3): 1
caspase 3 uM (Caspase 3): 7
caspase 10 uM (Caspase 3): 31
caspase 30 uM (Caspase 3): 33
6.25 uM % Lysed cells (1 h LDH) (SJSA-1 cells): 1.5%
25 uM % Lysed cells (1 h LDH) (SJSA-1 cells): 2%
50 uM % Lysed cells (1 h LDH) (SJSA-1 cells): 3.5%
